Results: PMC13349481 (ACS chemical biology, 2025)

System: P-glycoprotein (Pgp, MDR1)
Assay: MDCKII-MDR1 permeability and Pgp efflux
Assay type: in vitro ADME
Conditions: dog

Papp A→B (MDCK-MDR1): 28.6 ×10⁻⁶ cm/s
Papp B→A (MDCK-MDR1): 28 ×10⁻⁶ cm/s
efflux ratio (MDCK-MDR1): 0.98
recovery (MDCK-MDR1, recovery (%) A-B, MDCKII-MDR1, A-B): 109%
recovery (MDCK-MDR1, recovery (%) B-A, MDCKII-MDR1, B-A): 97.4%
Compound: COCCc1ccc(OCC(O)CNC(C)C)cc1 (centres unmarked) [metoprolol]
